Measured values: the supplement of paper PMC11451515

Test system: SEM cells
Assay: cell viability relative to DMSO control; higher = less cytotoxic
Details: 48 h
In short: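 NOMO1 or SEM (500 cells/well) or P12-Ichikawa (1000 cells/well) leukemia cells were adapted for at least four passages in each medium. They were seeded in 1536-well plates (5 μl) and pin-dosed with library compounds in DMSO over an 11-point threefold series, 47 μM to 0.79 nM. CellTiter-Glo One luminescence was read after 48 h at 37°C. Viability is the per-plate percentage relative to DMSO wells, with cell-free wells as background.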

COc1cc(NC(=O)c2ccc(-c3ccc(Cl)cc3)o2)cc(OC)c1
cell viability [%]
Details	HPLM + 10% dialyzed FBS	RPMI 5 mM glucose + 10% FBS	RPMI 5 mM glucose + 10% dialyzed FBS
0.000781 µM	73	77.7	81.2
0.00234 µM	94.6	90	96.2
0.00702 µM	93.6	103	95.9
0.0211 µM	106	104	102
0.0632 µM	98.5	107	105
0.19 µM	114	96.8	95.4
0.569 µM	116	94.2	96.4
1.71 µM	107	86.4	89.7
5.12 µM	107	102	99.8
15.4 µM	94.3	105	109
46.1 µM	107	98.9	90.1
